Measurements taken from US20250360137A1, “ENHANCEMENT OF THE EFFICACY OF SEROTONERGIC PSYCHEDELIC DRUGS IN THE TREATMENT OR PREVENTION OF CERTAIN NEUROPSYCHIATRIC DISORDERS THROUGH INHIBITION OF TYPE-9 PHOSPHODIESTERASES” (Freedom Biosciences, Inc., priority 2022, published 2025).

Tested on: C57B6/J mice
Experiment: Psilocybin induced head twitch response (HTR) in mice, automated system with implanted ear magnets
Format: in vivo
Method: Illustrated herein is a dose-dependent decrease in hallucinogenic response (head-twitch response, HTR) to psilocybin administration by adding a PDE9 inhibitor.
In this experiment, it was determined whether the number of head twitches in 10 minutes in response to psilocybin administration in 7-10 week old C57B6/J mice (equal numbers of male and female) were reduced by PF-4447943, a prototypical PDE9 inhibitor. The experiment began with the mice receiving a 20-minute pretreatment with PF-4447943 or its associated vehicle (5% Cremophor, 5% dimethyl sulfoxide (DMSO), and 90% saline) followed by the test dose of psilocybin. Head twitch was assessed for 10 minutes in an automated system using implanted magnets in the mouse's ears. At least one week elapsed prior to reuse, and mice were used maximally twice. […] For instance, average HTR over 10 min in mice receiving 3 mg/kg psilocybin and no PF-4447943 was about 30, while average HTR over 10 min in mice receiving 3 mg/kg psilocybin plus 3 mg/kg PF-4447943 was about 20.
In another experiment, a psilocybin dose-response curve was generated in the presence and absence of a fixed dose of pre-administered PF-4447943. FIG. 2 depicts the results of HTR in mice receiving administration of a fixed dose of PF-4447943 (3 mg/kg IP) and various doses of psilocybin (0, 0.3, 1, 3, 10 mg/kg IP), in comparison with administration of psilocybin plus the PF-4447943 vehicle alone as a control.

Compound	HTR after psilocybin following pretreatment with PF-4447943 compared to pretreatment with the PF-4447943 vehicle (20-minute pretreatment, head twitch assessed for 10 minutes, FIG. 1)	average HTR over 10 min (mice receiving 3 mg/kg psilocybin plus 3 mg/kg PF-4447943 (20-minute pretreatment), FIG. 1)	reduction of HTR (pretreatment with 3 mg/kg PF-4447943 IP, across all doses of psilocybin (0, 0.3, 1, 3, 10 mg/kg IP) vs psilocybin plus vehicle, FIG. 2)	average HTR over 10 min (mice receiving 3 mg/kg psilocybin and no PF-4447943 (vehicle pretreatment), FIG. 1)
C[C@@H]1CN(Cc2ncccn2)C[C@H]1c1nc2c(cnn2C2CCOCC2)c(=O)[nH]1 [PF-4447943, 6-[(3S,4S)-4-methyl-1-(pyrimidin-2-ylmethyl)pyrrolidin-3-yl]-1-(tetrahydro-2H-pyran-4-yl)-1,5-dihydro-4H-pyrazolo[3,4-d]pyrimidin-4-one]	reduced	about 20	about 40%	–
CN(C)CCc1c[nH]c2cccc(OP(=O)(O)O)c12 [psilocybin, [3-[2-(dimethylamino)ethyl]-1H-indol-4-yl]dihydrogen phosphate]	–	–	–	about 30
